Test results reported in patent US20240342137A1 (priority 2023, published 2024).
Values after ≈ are worked out from the molar mass of the structure shown. Like-named read-outs stand apart in the source and are kept apart here.

Experiments:
[1] = molecular target: T1, alpha-2 adrenoceptors; conditions: cited from earlier work; for IC50: read-out: half-maximal inhibitory concentration
T1 construct: rows headed: Alpha-2 Ki; other: [3H]clonidine displacement, brain membrane; other: alpha-2; lower sensitivity compared to atipamezole; other: alpha-2, vs atipamezole

[2] = molecular target: alpha-1 adrenoceptors; conditions: cited from earlier work
[3] = human, in vivo, 20 mg, cited from earlier work
[4] = system: other neurotransmitter receptors including I2 and 5-HT; conditions: cited from earlier work
[5] = system: other adrenergic, opioid or GABA (Gamma-AminoButyric Acid class) sedative and analgesic agents; conditions: cited from earlier work
[6] = physchem; conditions: water
[7] = human, in vivo, cited from earlier work
[8] = type: physicochemical; conditions: pH 6
[9] = human, in vivo; cited from earlier work
[10] = system: xylazine sedative effects; conditions: in vivo; cited from earlier work

SMILES: c1ccc2c(c1)OCC(C1=NCCN1)O2 (stereo not drawn) [Idazoxan]
- Ki [1]: 0.148 µM
- IC50 [1]: 0.148 µM
- Ki [2]: 3.96 µM

SMILES: COC(=O)[C@@H]1[C@H]2C[C@H]3c4[nH]c5ccccc5c4CCN3C[C@@H]2CC[C@@H]1O [Yohimbine]
- Ki [2]: 5.13 µM

SMILES: CCC1(c2cnc[nH]2)Cc2ccccc2C1 [Atipamezole, 4-(2-ethyl-2,3-dihydro-1H-inden-2-yl)-1H-imidazole]
- AUC [3]: 85 ng·h/mL
- Cmax [3]: 23 ng/mL
- T1/2 [3]: 2.0 h
- Tmax [3]: 0.76 h
- AUC ([3]; iv): 231 ng·h/mL
- Cmax ([3]; iv): 145 ng/mL
- T1/2 ([3]; iv): 1.8 h
- AUC ([3]; po): 4.2 ng·h/mL
- Cmax ([3]; po): 1.2 ng/mL
- T1/2 ([3]; po): 2.0 h
- Tmax ([3]; po): 0.82 h
- effect on other neurotransmitter receptors including I2 and 5-HT [4]: Negligible or no effect on other neurotransmitter receptors including I2
- Ki [1]: 0.0016 µM
- IC50 [1]: 0.0016 µM
- Ki [2]: 13.3 µM
- effect on other adrenergic, opioid or GABA sedative and analgesic agents [5]: No effect on other adrenergic, opioid or GABA (Gamma-AminoButyric
- solubility [6]: ~70 µg/mL (≈ 330 µM)
- T1/2 ([7]; iv, 15 ug/kg): 2.04 h
- Tmax ([7]; iv, 15 ug/kg): 0.25 h
- T1/2 ([7]; iv, 50 ug/kg): 1.92 h
- T1/2 ([7]; iv, 150 ug/kg): 1.83 h
- elimination half-life ([7]; iv): approximately 2 hour
- elimination half-life [7]: Short elimination half-life (~2 h in humans) improving safety
- final atipamezole concentration when fully dissolved [8]: 375.8 mM
- increase in heart rate and blood pressure [9]: 14-17 mmHg (which may benefit those who are under deep respiratory
- safety in humans by dose [9]: safe up to 100 mg dose
- untoward or Severe Adverse Event (SAE) [9]: At 30-100 mg/dose in human with no major untoward or Severe Adverse
- breathing rate reversal of xylazine sedative effects [10]: Rapid breathing rate reversal of xylazine sedative effects within a few
- concentrations of atipamezole for restoring breathing rate [10]: 10 to 20 ng/mL
